Earlier results as cited in patent US20030008923A1, “Antineoplastic combinations” (Wyeth, priority 2001, published 2003).

Columns and labels:
[1] = tested on: histologically diverse tumor cells
[2] = tested on: human glioblastoma cell line; conditions: human glioblastoma cell line in vitro
mTOR = mTOR (Homo sapiens, UniProt P42345+P62942); conditions: growth factor stimulated cells, Western blot

CO[C@H]1C[C@@H]2CC[C@@H](C)[C@@](O)(O2)C(=O)C(=O)N2CCCC[C@H]2C(=O)O[C@H]([C@H](C)C[C@@H]2CC[C@@H](OC(=O)C(C)(CO)CO)[C@H](OC)C2)CC(=O)[C@H](C)/C=C(\C)[C@@H](O)[C@@H](OC)C(=O)[C@H](C)C[C@H](C)/C=C/C=C/C=C/1C [CCI-779, Rapamycin 42-ester with 3-hydroxy-2-(hydroxymethyl)-2-methylpropionic acid]
growth of tumor cells in vitro ([1]; histologically diverse tumor cells): inhibit the growth
cell cycle effect ([1]; in vitro): arrested cells in the G1 phase
activity against human tumor xenografts of diverse histological types (human tumor xenografts; nude mice): has activity
growth of several human pancreatic tumors (human tumor xenografts; nude mice): inhibited
activity in orthotopic glioma model (human tumor xenografts; orthotopic glioma model in nude mice): active
growth factor (platelet-derived)-induced stimulation [2]: markedly suppressed

CO[C@H]1C[C@@H]2CC[C@@H](C)[C@@](O)(O2)C(=O)C(=O)N2CCCC[C@H]2C(=O)O[C@H]([C@H](C)C[C@@H]2CC[C@@H](O)[C@H](OC)C2)CC(=O)[C@H](C)/C=C(\C)[C@@H](O)[C@@H](OC)C(=O)[C@H](C)C[C@H](C)/C=C/C=C/C=C/1C [rapamycin]
phosphorylation of serine 389 of p70s6 kinase (mTOR): completely blocks
